Assay results from patent US20110190267A1, “PRODRUGS OF OPIOIDS AND USES THEREOF” (priority 2010, published 2011).
Several values for one entry are separate records, joined by “and”; a condition that tells them apart may be missing. Equal values may be shown once.

Assays:
[1] = Norbury et al. (1983); cited from earlier work
[2] = Pharmacokinetics of meptazinol or meptazinol PABA carbamate, rats (Example 30); details: for Fabs: meptazinol; for clearance: CL; for Vd: Vss
Method: Blood samples were taken at various times after administration and submitted to analysis for the parent drug and pro-drug using a validated LC-MS-MS assay. Pharmacokinetic parameters derived from the plasma analytical data were determined using Win Nonlin.

[3] = Pharmacokinetics of meptazinol or meptazinol PABA carbamate, monkeys (Example 29); assay type: in vivo, monkey; details: for AUC / C0 / t½ / Cmax / T>50%Cmax / Tmax / half-life: meptazinol in plasma; for Fabs: meptazinol; for Vd: read-out: Vss; for half-life: read-out: t½ (converted)
Excerpt: The results are given in Tables 15 to 18 and shown graphically in FIG. 4.

[4] = molecular target: T1, Acetylcholinesterase (h), human recombinant (HEK-293 cells) (Homo sapiens, UniProt P22303); test: Human acetylcholine esterase inhibition (Example 31); assay type: biochemical; details: AMTCh 50 μM, 30 min./37° C., photometry; read-out: apparent IC50
T1 construct: host or cells: HEK-293 cells
T1 sequence (P22303 32-614): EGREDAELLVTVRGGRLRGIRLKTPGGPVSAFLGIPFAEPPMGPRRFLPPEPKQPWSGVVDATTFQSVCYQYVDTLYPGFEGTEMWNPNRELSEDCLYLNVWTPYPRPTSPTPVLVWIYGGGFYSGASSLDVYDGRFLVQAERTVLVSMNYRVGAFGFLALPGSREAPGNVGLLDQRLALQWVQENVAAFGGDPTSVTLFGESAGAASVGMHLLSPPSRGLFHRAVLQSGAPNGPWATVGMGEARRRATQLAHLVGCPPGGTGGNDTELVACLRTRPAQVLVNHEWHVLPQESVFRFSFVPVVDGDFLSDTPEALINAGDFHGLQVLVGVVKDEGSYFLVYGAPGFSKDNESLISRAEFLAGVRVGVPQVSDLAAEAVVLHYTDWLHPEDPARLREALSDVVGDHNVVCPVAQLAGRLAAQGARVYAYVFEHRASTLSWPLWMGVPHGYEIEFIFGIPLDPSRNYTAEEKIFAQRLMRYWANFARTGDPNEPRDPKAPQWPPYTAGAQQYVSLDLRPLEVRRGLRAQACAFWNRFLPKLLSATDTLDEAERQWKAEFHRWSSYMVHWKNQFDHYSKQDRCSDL
Method: The results are expressed as a percent of control specific activity ((measured specific activity/control specific activity)×100) obtained in the presence of the test compounds.
The IC50 values (concentration causing a half-maximal inhibition of control specific activity), and Hill coefficients (nh) were determined by non-linear regression analysis of the inhibition curves generated with mean replicate values using hill equation curve fitting (y=d+[(a−d)/(1+(c/c50)^nh)], where y=specific activity, d=minimum specific activity, a=maximum specific activity, c=compound concentration, C50=IC50, and nh=slope factor).
This analysis was performed using software developed at Cerep (Hill software) and validated by comparison with data generated by the commercial software Sigmaplot® 4.0 for Windows®.

[5] = Pharmacokinetics of meptazinol or meptazinol PABA carbamate, dogs (Example 27); assay type: in vivo, dog; details: for Vd: read-out: Vss; for Fabs: meptazinol
Excerpt: The results are given in Tables 8 to 11 and shown graphically in FIG. 2.

[6] = Pharmacokinetics of meptazinol from PABA analogue prodrugs, dogs (Example 26); assay type: in vivo; details: dog, plasma, po, 1 mg/kg
Method: (§1) Blood samples were taken at various times after administration and submitted to analysis for the parent drug and prodrug using a validated LC-MS-MS assay. Pharmacokinetic parameters derived from the plasma analytical data were determined using Win Nonlin.

[7] = Pharmacokinetics of meptazinol from PABA analogue prodrugs, monkeys (Example 26); assay type: in vivo; details: monkey, plasma, po, 2 mg/kg
Method: as §1

[8] = iv meptazinol 1 mg free base equivalents/kg, rats, individual animals
[9] = meptazinol in plasma, iv meptazinol 1 mg free base equivalents/kg, rats, individual animals
[10] = meptazinol in plasma, oral meptazinol 1 mg free base equivalents/kg, rats, individual animals
[11] = rat, plasma, iv, 1 mg/kg, iv meptazinol 1 mg free base equivalents/kg, rats, individual animals
[12] = rat, plasma, iv, 1 mg/kg, iv meptazinol 1 mg free base equivalents/kg, rats, mean
[13] = iv meptazinol 1 mg free base equivalents/kg, individual animals
[14] = oral meptazinol 10 mg free base equivalents/kg, individual animals
[15] = oral meptazinol 10 mg free base equivalents/kg, mean
[16] = monkey, plasma, iv, 1 mg/kg, iv meptazinol 1 mg free base equivalents/kg, individual animals
[17] = monkey, plasma, iv, 1 mg/kg, iv meptazinol 1 mg free base equivalents/kg, mean
[18] = dog, plasma, iv, 1 mg/kg, iv meptazinol 1 mg free base equivalents/kg, individual animals
[19] = dog, plasma, iv, 1 mg/kg, iv meptazinol 1 mg free base equivalents/kg, mean
[20] = meptazinol in plasma, oral meptazinol 1 mg free base equivalents/kg, individual animals
[21] = meptazinol in plasma, oral meptazinol 1 mg free base equivalents/kg, mean
[22] = read-out: AUC* (mean ngh/mL), AUC0-t

CCC1(c2cccc(O)c2)CCCCN(C)C1 (stereo not shown) [meptazinol]
oral bioavailability [1]: < 10%
CL [2, 8]: 75.2 mL/min/kg and 88.3 mL/min/kg and 89.3 mL/min/kg and 92.2 mL/min/kg
Vss [2, 8]: 4.0 L and 5.4 L (2×) and 5.1 L
AUC [2, 9]: 222 ng·h/mL and 189 ng·h/mL and 187 ng·h/mL and 181 ng·h/mL
C0 [2, 9]: 246 ng/mL and 259 ng/mL and 267 ng/mL and 244 ng/mL
t½ [2, 9]: 36 min and 42 min
AUC* ([2]; meptazinol in plasma, oral meptazinol 1 mg free base equivalents/kg, rats, calculated based on half-life from previous iv study, individual animals): 3.1 ng·h/mL and 2.8 ng·h/mL and 4.9 ng·h/mL
Cmax [2, 10]: 1.12 ng/mL and 1.49 ng/mL and 1.44 ng/mL
t½* [2, 10]: 54 min
Fabs ([2]; oral meptazinol 1 mg free base equivalents/kg, rats, individual animals): 1.6% (2×) and 1.5% and 2.6%
Fabs ([2]; oral meptazinol 1 mg free base equivalents/kg, rats, mean): 1.8±0.5% and 1.8%
AUC ([2]; rat, plasma, iv, 1 mg/kg, AUC, meptazinol in plasma, iv meptazinol 1 mg free base equivalents/kg, rats, individual animals): 161 ng·h/mL
AUC ([2]; rat, plasma, iv, 1 mg/kg, AUC, meptazinol in plasma, iv meptazinol 1 mg free base equivalents/kg, rats, mean): 188 ng·h/mL
C0 ([2]; rat, plasma, iv, 1 mg/kg, C0, meptazinol in plasma, iv meptazinol 1 mg free base equivalents/kg, rats, individual animals): 191 ng/mL
C0 ([2]; rat, plasma, iv, 1 mg/kg, C0, meptazinol in plasma, iv meptazinol 1 mg free base equivalents/kg, rats, mean): 241 ng/mL
clearance [2, 11]: 104 mL/min/kg
clearance [2, 12]: 89.7 mL/min/kg
Vd [2, 11]: 6.8 L
Vd [2, 12]: 5.3 L
half-life ([2]; rat, plasma, iv, 1 mg/kg, t½, meptazinol in plasma, iv meptazinol 1 mg free base equivalents/kg, rats, individual animals): 48 min
half-life ([2]; rat, plasma, iv, 1 mg/kg, t½, meptazinol in plasma, iv meptazinol 1 mg free base equivalents/kg, rats, mean): 42 min
Tmax ([2]; rat, plasma, po, 1 mg/kg): 30 min
AUC ([2]; rat, plasma, po, 1 mg/kg, AUC*, meptazinol in plasma, oral meptazinol 1 mg free base equivalents/kg, rats, calculated based on half-life from previous iv study, individual animals): 2.9 ng·h/mL
AUC ([2]; rat, plasma, po, 1 mg/kg, AUC*, meptazinol in plasma, oral meptazinol 1 mg free base equivalents/kg, rats, calculated based on half-life from previous iv study, mean): 3.4 ng·h/mL
Cmax ([2]; rat, plasma, po, 1 mg/kg, Cmax, meptazinol in plasma, oral meptazinol 1 mg free base equivalents/kg, rats, individual animals): 1.93 ng/mL
Cmax ([2]; rat, plasma, po, 1 mg/kg, Cmax, meptazinol in plasma, oral meptazinol 1 mg free base equivalents/kg, rats, mean): 1.6 ng/mL
half-life ([2]; rat, plasma, po, 1 mg/kg, t½*, meptazinol in plasma, oral meptazinol 1 mg free base equivalents/kg, rats, mean): 78 min
CL [3, 13]: 66.2 mL/min/kg and 73.2 mL/min/kg and 77.3 mL/min/kg and 70.3 mL/min/kg
Vss [3, 13]: 4.88 L and 4.11 L and 4.96 L
AUC [3, 13]: 252 ng·h/mL and 228 ng·h/mL and 215 ng·h/mL and 237 ng·h/mL
C0 [3, 13]: 334 ng/mL and 226 ng/mL (2×) and 369 ng/mL
t½ [3, 13]: 49.8 min and 40.8 min and 52.2 min
AUC [3, 14]: 47.7 ng·h/mL and 37.7 ng·h/mL and 38.2 ng·h/mL and 47.8 ng·h/mL
Cmax [3, 14]: 18.3 ng/mL and 19.8 ng/mL and 22.5 ng/mL and 19 ng/mL
T>50%Cmax [3, 14]: 0.9 h and 2.4 h and 1.7 h and 1.4 h and 2.3 h
Tmax [3, 14]: 120 min and 60 min
t½ [3, 14]: 48 min and 54 min and 42 min
T>50%Cmax [3, 15]: 1.7 h
Fabs [3, 14]: 1.6% (3×) and 2.0% (2×)
Fabs [3, 15]: 1.8%
clearance [3, 16]: 73.7 mL/min/kg
Vd [3, 16]: 4.83 L
clearance [3, 17]: 72.2 mL/min/kg
Vd [3, 17]: 4.72 L
AUC ([3]; monkey, plasma, iv, 1 mg/kg, iv meptazinol 1 mg free base equivalents/kg, individual animals, read-out: AUC): 227 ng·h/mL
C0 ([3]; monkey, plasma, iv, 1 mg/kg, iv meptazinol 1 mg free base equivalents/kg, individual animals, read-out: C0): 211 ng/mL
half-life [3, 16]: 48.6 min
AUC ([3]; monkey, plasma, iv, 1 mg/kg, iv meptazinol 1 mg free base equivalents/kg, mean, read-out: AUC): 232 ng·h/mL
C0 ([3]; monkey, plasma, iv, 1 mg/kg, iv meptazinol 1 mg free base equivalents/kg, mean, read-out: C0): 273 ng/mL
half-life [3, 17]: 50.4 min
AUC ([3]; monkey, plasma, po, 10 mg meptazinol free base equivalents/kg, oral meptazinol 10 mg free base equivalents/kg, individual animals, read-out: AUC): 39.4 ng·h/mL
Cmax ([3]; monkey, plasma, po, 10 mg meptazinol free base equivalents/kg, oral meptazinol 10 mg free base equivalents/kg, individual animals, read-out: Cmax): 26.1 ng/mL
half-life ([3]; monkey, plasma, po, 10 mg meptazinol free base equivalents/kg, oral meptazinol 10 mg free base equivalents/kg, individual animals): 60 min
AUC ([3]; monkey, plasma, po, 10 mg meptazinol free base equivalents/kg, oral meptazinol 10 mg free base equivalents/kg, mean, read-out: AUC): 42.2 ng·h/mL
Cmax ([3]; monkey, plasma, po, 10 mg meptazinol free base equivalents/kg, oral meptazinol 10 mg free base equivalents/kg, mean, read-out: Cmax): 21.1 ng/mL
half-life ([3]; monkey, plasma, po, 10 mg meptazinol free base equivalents/kg, oral meptazinol 10 mg free base equivalents/kg, mean): 48 min
Tmax ([3]; monkey, plasma, po, 10 mg meptazinol free base equivalents/kg, oral meptazinol 10 mg free base equivalents/kg, median value, read-out: Tmax): 30 min
IC50 [4]: 1500 nM
clearance [5, 18]: 67.3 mL/min/kg
Vd [5, 18]: 4.14 L
clearance [5, 19]: 62.7 mL/min/kg
Vd [5, 19]: 3.55 L
AUC ([5]; dog, plasma, iv, 1 mg/kg, meptazinol in plasma, iv meptazinol 1 mg free base equivalents/kg, individual animals, read-out: AUC): 247 ng·h/mL
AUC ([5]; dog, plasma, iv, 1 mg/kg, meptazinol in plasma, iv meptazinol 1 mg free base equivalents/kg, mean, read-out: AUC): 269 ng·h/mL
Cmax ([5]; dog, plasma, po, 1 mg/kg, meptazinol in plasma, oral meptazinol 1 mg free base equivalents/kg, individual animals, read-out: Cmax): 4.22 ng/mL
AUC ([5]; dog, plasma, po, 1 mg/kg, meptazinol in plasma, oral meptazinol 1 mg free base equivalents/kg, mean, read-out: AUC): 15.6 ng·h/mL
half-life ([5]; dog, plasma, po, 1 mg/kg, meptazinol in plasma, oral meptazinol 1 mg free base equivalents/kg, mean, read-out: t½ (converted)): 108 min
CL [5, 13]: 60.8 mL/min/kg and 57.2 mL/min/kg and 54.5 mL/min/kg and 73.3 mL/min/kg
Co ([5]; meptazinol in plasma, iv meptazinol 1 mg free base equivalents/kg, individual animals): 340 ng/mL and 308 ng/mL and 350 ng/mL and 402 ng/mL and 477 ng/mL
Co ([5]; meptazinol in plasma, iv meptazinol 1 mg free base equivalents/kg, mean): 375 ng/mL
AUC [5, 20]: 15.1 ng · h/mL and 15.8^b ng · h/mL and 23.3 ng · h/mL and 19.6^b ng · h/mL and 8.52 ng · h/mL
Cmax [5, 20]: 6.82 ng/mL and 6.79 ng/mL and 5.04 ng/mL and 3.52 ng/mL
T>50%Cmax [5, 20]: 2.5 h and 1.1 h and 1.9 h and 2.4 h and 1.8 h
Tmax [5, 20]: 0.5 h and 1 h (2×)
Cmax [5, 21]: 5.28 ng/mL
T>50%Cmax [5, 21]: 1.9 h
Fabs ([5]; oral meptazinol 1 mg free base equivalents/kg, individual animals): 6.1% and 5.8% and 8.0% and 6.4% and 3.8%
Fabs ([5]; oral meptazinol 1 mg free base equivalents/kg, mean): 6.0±2.1% and 6.0%
Cmax [6]: 4 ± 5.5 ng/mL
AUC(0-t) [6, 22]: 5.4 ± 5.9 ng·h/mL
Cmax [7]: 1.3 ± 0.3 ng/mL
AUC(0-t) [7, 22]: 3.1 ± 0.7 ng·h/mL
